One data set has as its target T1, dopamine D2 receptor (Rattus norvegicus, UniProt P61169).
T1 construct: from tissue; host or cells: rat striatal brain tissue homogenate
The data set is described as follows: Dopamine D2 receptor affinity, 3H-quinpirole binding in homogenized rat striatal brain tissue. The procedure:
Affinity for the dopamine D2 receptor was established by a modification of the standard experimental test procedure of Seemen and Schaus, European Journal of Pharmacology 203:105-109, 1991, wherein homogenized rat striatal brain tissue is incubated with ^3H-quinpirole and various concentrations of test compound, filtered and washed and counted in a Betaplate scintillation counter.

The test system of a further data set is dopamine receptors. The experiment in a line: Reduction of mouse locomotor activity (functional antagonism of dopamine receptors in vivo). Conditions: sc; male CF-1 mice; horizontal activity counts 10 to 20 minutes after dosing. Here is the method: The antipsychotic activity of the compounds of the invention was established by a determination of functional antagonism of dopamine receptors in vivo, specifically the compounds' ability to reduce mouse locomotor activity according to the method of Martin and Bendensky, J. Pharmacol. Exp. Therap. 229:706-711, 1984, in which mice (male, CF-1, Charles River, 20-30 g) were injected with vehicle or various doses of each drug and locomotor activity was measured for 30 minutes using automated infrared activity monitors (Omnitech—8×8 inch open field) located in a darkened room. ED50's were calculated from the horizontal activity counts collected from 10 to 20 minutes after dosing using a nonlinear regression analysis with inverse prediction.

Counter-ions that a name gives are not always drawn.

T1 sequence (P61169 whole entry): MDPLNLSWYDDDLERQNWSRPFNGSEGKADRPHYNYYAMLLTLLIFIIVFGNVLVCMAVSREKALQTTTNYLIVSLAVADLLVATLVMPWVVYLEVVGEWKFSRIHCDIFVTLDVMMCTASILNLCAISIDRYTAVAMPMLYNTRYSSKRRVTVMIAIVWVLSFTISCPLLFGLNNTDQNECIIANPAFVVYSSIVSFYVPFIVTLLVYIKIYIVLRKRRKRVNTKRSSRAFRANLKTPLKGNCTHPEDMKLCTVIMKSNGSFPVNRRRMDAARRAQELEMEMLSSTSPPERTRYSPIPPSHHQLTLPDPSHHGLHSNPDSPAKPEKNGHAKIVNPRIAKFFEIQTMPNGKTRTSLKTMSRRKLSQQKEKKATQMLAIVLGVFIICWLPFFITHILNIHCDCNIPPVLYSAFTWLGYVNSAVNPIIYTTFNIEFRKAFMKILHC

Take `c1ccc(CCCCNCC2COc3ccc4nocc4c3O2)cc1` (stereo not drawn) (as salt: fumarate) (hydrate or solvate) [Example 7, (7,8-Dihydro-2,6,9-trioxa-3-aza-cyclopenta[a]naphthalen-8-ylmethyl)-(4-phenyl-butyl)-amine]: the melting point was in the range of 172 to 174 °C.

In turn, `c1ccc(CCCCNCC2COc3ccc4nocc4c3O2)cc1` (stereo not drawn) [Example 7, (7,8-Dihydro-2,6,9-trioxa-3-aza-cyclopenta[a]naphthalen-8-ylmethyl)-(4-phenyl-butyl)-amine] gave an IC50 on dopamine D2 receptor of 4.1 nM.

`c1ccc(CNCC2COc3ccc4nocc4c3O2)cc1` (stereo not drawn) (as salt: fumarate) [Example 1, Benzyl-(-7,8-dihydro-2,6,9-trioxa-3-aza-cyclopenta[a]naphthalen-8-ylmethyl)-amine] displayed a melting point of 180 °C.

`c1ccc(CNCC2COc3ccc4nocc4c3O2)cc1` (stereo not drawn) [Example 1, Benzyl-(-7,8-dihydro-2,6,9-trioxa-3-aza-cyclopenta[a]naphthalen-8-ylmethyl)-amine] returned an IC50 on dopamine D2 receptor of 8.05 nM.

`Fc1ccc2[nH]cc(CC3CCN(CC4COc5ccc6nocc6c5O4)CC3)c2c1` (stereo not drawn) (as salt: oxalate) [Example 4, 8-[4-(5-Fluoro-1H-indol-3-ylmethyl)-piperidin-1-ylmethyl]-7,8-dihydro-2,6,9-trioxa-3-aza-cyclopenta[a]naphthalene] displayed a melting point of 202 to 205 °C.

At dopamine D2 receptor, `c1ccc2c(c1)CCN(CC1COc3ccc4nocc4c3O1)C2` (stereo not drawn) [Example 2, 8-(3,4-Dihydro-1H-isoquinolin-2-ylmethyl)-7,8-dihydro-2,6,9-trioxa-3-aza-cyclopenta[a]naphthalene] gave an IC50 of 58.8 nM.

At dopamine D2 receptor, `Fc1ccc2[nH]cc(CC3CCN(CC4COc5ccc6nocc6c5O4)CC3)c2c1` (stereo not drawn) [Example 4, 8-[4-(5-Fluoro-1H-indol-3-ylmethyl)-piperidin-1-ylmethyl]-7,8-dihydro-2,6,9-trioxa-3-aza-cyclopenta[a]naphthalene] showed an IC50 of 36.7 nM.

`c1ccc2c(CCCNCC3COc4ccc5nocc5c4O3)c[nH]c2c1` (stereo not drawn) (as salt: oxalate) [Example 6, 2,3-Dihydro-N-[3-(1H-indol-3-yl)propyl]-1,4-dioxino[2,3-e][2,1]benzisoxazole-2-methanamine] came in with a melting point of 230 °C.

On to `O=C(c1ccc(F)cc1)C1CCN(CC2COc3ccc4nocc4c3O2)CC1` (stereo not drawn) [Example 5, [1-(7,8-Dihydro-2,6,9-trioxa-3-aza-cyclopenta[a]naphthalen-8-ylmethyl)-piperidin-4-yl]-(4-fluoro-phenyl)-methanone], for which the IC50 at dopamine D2 receptor amounted to 32.4 nM.

As for `O=C(c1ccc(F)cc1)C1CCN(CC2COc3ccc4nocc4c3O2)CC1` (stereo not drawn) (as salt: fumarate) [Example 5, [1-(7,8-Dihydro-2,6,9-trioxa-3-aza-cyclopenta[a]naphthalen-8-ylmethyl)-piperidin-4-yl]-(4-fluoro-phenyl)-methanone], the melting point was in the range of 204 to 206 °C.

Take `c1ccc2c(c1)CCN(CC1COc3ccc4nocc4c3O1)C2` (stereo not drawn) (as salt: fumarate) [Example 2, 8-(3,4-Dihydro-1H-isoquinolin-2-ylmethyl)-7,8-dihydro-2,6,9-trioxa-3-aza-cyclopenta[a]naphthalene]: the melting point was in the range of 175 to 176 °C.

As for `c1ccc2c(CCCNCC3COc4ccc5nocc5c4O3)c[nH]c2c1` (stereo not drawn) [Example 6, 2,3-Dihydro-N-[3-(1H-indol-3-yl)propyl]-1,4-dioxino[2,3-e][2,1]benzisoxazole-2-methanamine], the IC50 at dopamine D2 receptor came out at 4.8 nM.

For `C1=C(c2c[nH]c3ccccc23)CCN(CC2COc3ccc4nocc4c3O2)C1` (stereo not drawn) [Example 3, 8-[4-(1H-Indol-3-yl)-3,6-dihydro-2H-pyridin-1-ylmethyl]-7,8-dihydro-2,6,9-trioxa-3-aza-cyclopenta[a]naphthalene], the melting point was found to be 110 °C. Moreover, the IC50 at dopamine D2 receptor was 350 nM. In the data set on dopamine receptors, the “ED50 for reduction of mouse locomotor activity” value is listed as not below 50 mg/kg.

For orientation: melting point means the temperature, or range, at which the solid turns liquid. For orientation: IC50 means the concentration at which inhibition is half-maximal. A lower IC50 goes with greater potency in that assay.

The values are drawn from US6800642B2, “Antipsychotic aminomethyl derivatives of 7,8-dihydro-2,6,9-trioxa-3-aza-cyclopenta[a]naphthalene” (Wyeth, priority 2001, dated 2004).
